From PubChem BioAssay (NCI)
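Test compounds were applied to cells in 96-well plates for 48 hours at 5 doses. GI50 is the concentration that inhibits growth by half. TGI: concentration producing complete growth inhibition.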

Experiments:
Experiment in all cases: DTP human tumour cell line panel, 48 h
786-0 renal = system: 786-0 renal
A498 renal = system: A498 renal
A549 NSCLC = system: A549 NSCLC
ACHN renal = system: ACHN renal
BT-549 breast = system: BT-549 breast
CAKI-1 renal = system: CAKI-1 renal
CCRF-CEM leukemia = system: CCRF-CEM leukemia
COLO 205 colon = system: COLO 205 colon
DU-145 prostate = system: DU-145 prostate
EKVX NSCLC = system: EKVX NSCLC
HCC-2998 colon = system: HCC-2998 colon
HCT-116 colon = system: HCT-116 colon
HCT-15 colon = system: HCT-15 colon
HL-60(TB) leukemia = system: HL-60(TB) leukemia
HOP-62 NSCLC = system: HOP-62 NSCLC
HOP-92 NSCLC = system: HOP-92 NSCLC
HS 578T breast = system: HS 578T breast
HT29 colon = system: HT29 colon
IGROV1 ovarian = system: IGROV1 ovarian
K-562 leukemia = system: K-562 leukemia
KM12 colon = system: KM12 colon
LOX IMVI melanoma = system: LOX IMVI melanoma
M14 melanoma = system: M14 melanoma
MALME-3M melanoma = system: MALME-3M melanoma
MCF7 breast = system: MCF7 breast
MDA-MB-231 breast = system: MDA-MB-231 breast
MDA-MB-435 = system: MDA-MB-435
MOLT-4 leukemia = system: MOLT-4 leukemia
NCI-H226 lung = system: NCI-H226 lung
NCI-H460 lung = system: NCI-H460 lung
NCI-H522 lung = system: NCI-H522 lung
NCI/ADR-RES ovarian = system: NCI/ADR-RES ovarian
OVCAR-3 ovarian = system: OVCAR-3 ovarian
OVCAR-4 ovarian = system: OVCAR-4 ovarian
OVCAR-5 ovarian = system: OVCAR-5 ovarian
OVCAR-8 ovarian = system: OVCAR-8 ovarian
PC-3 prostate = system: PC-3 prostate
RPMI-8226 leukemia = system: RPMI-8226 leukemia
RXF 393 renal = system: RXF 393 renal
SF-268 CNS = system: SF-268 CNS
SF-295 CNS = system: SF-295 CNS
SF-539 CNS = system: SF-539 CNS
SK-MEL-2 melanoma = system: SK-MEL-2 melanoma
SK-MEL-28 melanoma = system: SK-MEL-28 melanoma
SK-MEL-5 melanoma = system: SK-MEL-5 melanoma
SK-OV-3 ovarian = system: SK-OV-3 ovarian
SN12C renal = system: SN12C renal
SNB-19 CNS = system: SNB-19 CNS
SNB-75 CNS = system: SNB-75 CNS
SW-620 colon = system: SW-620 colon
T-47D breast = system: T-47D breast
TK-10 renal = system: TK-10 renal
U251 CNS = system: U251 CNS
UACC-257 melanoma = system: UACC-257 melanoma
UACC-62 melanoma = system: UACC-62 melanoma
UO-31 renal = system: UO-31 renal

## N#Cc1c(-c2ccc(Cl)cc2)nc(SCc2ccccc2)nc1N1CCNCC1
786-0 renal
  GI50: 1.42 µM
  TGI: 2.96 µM
A498 renal
  GI50: 1.69 µM
  TGI: 3.37 µM
A549 NSCLC
  GI50: 1.55 µM
  TGI: 2.99 µM
ACHN renal
  GI50: 1.67 µM
  TGI: 3.04 µM
BT-549 breast
  GI50: 1.69 µM
  TGI: 3.14 µM
CAKI-1 renal
  GI50: 1.48 µM
  TGI: 2.81 µM
CCRF-CEM leukemia
  GI50: 1.97 µM
  TGI: 4.51 µM
COLO 205 colon
  GI50: 1.65 µM
  TGI: 3.04 µM
DU-145 prostate
  GI50: 1.7 µM
  TGI: 3.07 µM
EKVX NSCLC
  GI50: 1.52 µM
  TGI: 2.89 µM
HCC-2998 colon
  GI50: 1.6 µM
  TGI: 3.03 µM
HCT-116 colon
  GI50: 1.64 µM
  TGI: 3.12 µM
HCT-15 colon
  GI50: 1.6 µM
  TGI: 3.02 µM
HL-60(TB) leukemia
  GI50: 1.44 µM
  TGI: 3.71 µM
HOP-62 NSCLC
  GI50: 1.75 µM
  TGI: 3.4 µM
HOP-92 NSCLC
  GI50: 1.06 µM
  TGI: 2.39 µM
HS 578T breast
  GI50: 1.89 µM
  TGI: 4.2 µM
HT29 colon
  GI50: 1.65 µM
  TGI: 3.02 µM
IGROV1 ovarian
  GI50: 1.61 µM
  TGI: 3.06 µM
K-562 leukemia
  GI50: 1.77 µM
  TGI: 5.81 µM
KM12 colon
  GI50: 1.77 µM
  TGI: 3.29 µM
LOX IMVI melanoma
  GI50: 2.05 µM
  TGI: 3.55 µM
M14 melanoma
  GI50: 1.65 µM
  TGI: 3.08 µM
MALME-3M melanoma
  GI50: 1.71 µM
  TGI: 3.32 µM
MCF7 breast
  GI50: 1.59 µM
  TGI: 3.2 µM
MDA-MB-231 breast
  GI50: 1.73 µM
  TGI: 3.37 µM
MDA-MB-435
  GI50: 1.7 µM
  TGI: 3.1 µM
MOLT-4 leukemia
  GI50: 1.6 µM
  TGI: 3.69 µM
NCI-H226 lung
  GI50: 1.84 µM
  TGI: 3.53 µM
NCI-H460 lung
  GI50: 1.72 µM
  TGI: 3.19 µM
NCI-H522 lung
  GI50: 1.5 µM
  TGI: 2.9 µM
NCI/ADR-RES ovarian
  GI50: 1.6 µM
  TGI: 3.18 µM
OVCAR-3 ovarian
  GI50: 1.73 µM
  TGI: 3.18 µM
OVCAR-4 ovarian
  GI50: 1.64 µM
  TGI: 3.08 µM
OVCAR-5 ovarian
  GI50: 1.64 µM
  TGI: 3.02 µM
OVCAR-8 ovarian
  GI50: 1.63 µM
  TGI: 3.03 µM
PC-3 prostate
  GI50: 1.61 µM
  TGI: 3.08 µM
RPMI-8226 leukemia
  GI50: 1.9 µM
  TGI: 4.49 µM
RXF 393 renal
  GI50: 1.58 µM
  TGI: 3.02 µM
SF-268 CNS
  GI50: 1.62 µM
  TGI: 3.2 µM
SF-295 CNS
  GI50: 1.75 µM
  TGI: 3.16 µM
SF-539 CNS
  GI50: 1.78 µM
  TGI: 3.2 µM
SK-MEL-2 melanoma
  GI50: 1.6 µM
  TGI: 3.02 µM
SK-MEL-28 melanoma
  GI50: 1.78 µM
  TGI: 3.19 µM
SK-MEL-5 melanoma
  GI50: 1.76 µM
  TGI: 3.14 µM
SK-OV-3 ovarian
  GI50: 1.87 µM
  TGI: 3.57 µM
SN12C renal
  GI50: 1.77 µM
  TGI: 3.27 µM
SNB-19 CNS
  GI50: 1.61 µM
  TGI: 3.08 µM
SNB-75 CNS
  GI50: 1.33 µM
  TGI: 2.68 µM
SW-620 colon
  GI50: 1.69 µM
  TGI: 3.22 µM
T-47D breast
  GI50: 1.65 µM
  TGI: 3.26 µM
TK-10 renal
  GI50: 1.51 µM
  TGI: 2.89 µM
U251 CNS
  GI50: 1.58 µM
  TGI: 2.94 µM
UACC-257 melanoma
  GI50: 1.55 µM
  TGI: 2.96 µM
UACC-62 melanoma
  GI50: 1.77 µM
  TGI: 3.21 µM
UO-31 renal
  GI50: 1.35 µM
  TGI: 2.64 µM
